Legend:
Format in all cases: cell-based, human
[1] = tested on: glutathione-S-transferase (GST); test: GST activity in treated A549 cells; details: A549, 20 µM
Description: (§1) Glutathione is an important intracellular molecule involved in carcinogen detoxification. On the other hand, its elevated state in cancer cells is often associated with resistance to chemotherapy. […] Because high levels of GSH are associated with cancer cell resistance, the GHS-depleting effect of compound 49 could be interesting due to new cancer chemosensitizer development. In the case of GST and GR, we hypothesize that an increase in the activity of both enzymes may be a compensatory mechanism induced by GSH depletion.
(§2) Both floating and adherent A549 cells were harvested at 24, 48, and 72 h after treatment with compound 49 (20 µM). SOD determination kit, Glutathione Peroxidase Cellular Activity Assay kit, Glutathione Reductase Assay Kit and Glutathione-S-transferase (GST) Assay Kit (all Sigma Aldrich, Germany) were used for the detection of relevant enzyme activity. Reduced glutathione (GSH) content was measured by the method originally described by Floreani et al.. Assays were performed on an M 501 single beam UV/VIS spectrophotometer (Spectronic Camspec Ltd., Leeds, United Kingdom). All measured parameters were calculated per milligram or gram of protein determined using the bicinchoninic acid assay.

[2] = tested on: A549 cells; test: Cell cycle analysis by flow cytometry
Protocol: To examine whether the antiproliferative effect of compound 49 is associated with cell cycle arrest, flow cytometry analyses of cell cycle progression were performed.
The A549 lung human alveolar adenocarcinoma cells were seeded at a density of 2 × 10^5/dish. After 24 h incubation, the cells were treated with indole phytoalexin 49 at 20 µM concentration alone or after 1 h pre-treatment with chloroquine (20 µM), and the control group with DMSO (v/v 0.02%). The whole population of treated cells (adherent and floating) for cell cycle analyses was harvested at three different times (24, 48 and 72 h), washed in cold washing buffer (PBS), fixed in cold 70% ethanol and stored at −20 °C at least overnight. For flow cytometry analyses, cell suspensions were washed with PBS, resuspended in staining solution (Triton X-100 final concentration 0.1%, ribonuclease A final concentration 0.5 mg/mL, and propidium iodide final concentration 0.025 mg/mL) and incubated for 30 min in the dark at RT. Stained cells were analyzed using a BD FACSCalibur^TM Flow Cytometer (Becton Dickinson, San Jose, CA, USA) in FL-2 channel. Three independent analyses were performed.

[3] = tested on: Atg7; test: Western blot, Atg7; details: A549, 24, 48, 72 h
Description: Atg7 belongs to the family of Atg (autophagy-related) proteins involved in the process of autophagy. A ubiquitin-like conjugation system is required for autophagosome formation. The Atg7 protein is an E1-like activating enzyme that ensures the conjugation reaction and is essential for successful conversion of cytosolic LC3-I to its conjugated form, LC3-II.. […] Similar results were reported earlier. Hseu et al. studied the effect of a natural chalcone, flavokawain B, on A549 lung cancer cells. […] Moreover, in curcumin-induced autophagy, up-regulation of beclin-1 has also been observed.
(§3) A549 cells were seeded on Petri dishes (55 cm^2) at a density of 1 × 10^6 and allowed to culture in the medium. After 24 h, the test substance was added, and the cells were incubated for 24, 48 and 72 h. Subsequently, the cells were lysed with ice-cold Laemli buffer solution containing glycerol, 1M Tris/HCl (pH 6.8), 20% sodium dodecyl sulphate (SDS), deionized water and mixtures of phosphatase and protease inhibitors. After lysis, the cells were sonicated, and the protein concentration in the samples was quantified using the Pierce® BCA Protein Assay Kit (Thermo Scientific, Rockford, IL, USA) and measured by an automated Cytation™ 3 Cell Imaging Multi-Mode Reader (Biotek) at a wavelength of 570 nm. […]

[4] = tested on: Phospho-AMPKα; test: Western blot, phospho-AMPK; details: A549, 24, 48, 72 h
Description: ULK1/AMPK. ULK1 is a serine/threonine protein kinase. The ULK1 complex controls the formation of the phagophore, the initial autophagosomal precursor membrane structure. Upon induction of autophagy, the ULK1 complex translocates to autophagy initiation sites and regulates the recruitment of a second kinase complex, VPS34. ULK1 can be inhibited by phosphorylation by mammalian target of rapamycin complex 1 (mTORC1) or activated after AMP-activated protein kinase (AMPK) phosphorylation. Under conditions of nutrient deficiency, AMPK is activated, which directly activates ULK1. The kinase is phosphorylated, i.e., activated by an increased AMP/ATP ratio due to cellular and environmental stress. AMPK also inactivates mTORC1 and thus blocks its inhibitory action on autophagy activation.
as §3, with “Subsequently, the cells were lysed with ice-cold Laemli buffer solution containing glycerol, 1M Tris/HCl (pH 6.8), 20% sodium dodecyl sulphate (SDS), deionized water and mixtures of phosphatase and protease inhibitors.” left out

[5] = tested on: LC3A/B; test: Western blot, LC3A/B; details: A549, all time periods
Description: LC3A/B, a microtubule-associated protein 1A/1B-light chain 3 (LC3), is a soluble intracellular protein. After synthesis of the pro-LC3 protein, this protein is first cleaved to form its cytosolic form known as LC3-I. The cytosolic form of LC3 (LC3-I) conjugates with phosphatidylethanolamine to form the LC3-phosphatidylethanolamine conjugate (LC3-II), which is recruited to autophagosomal membranes. After the formation of autophagosomes, their fusion with lysosomes occurs, autolysosomes are formed, and intra-autophagosomal material (cytoplasmic components including cytosolic proteins and organelles) is degraded by lysosomal hydrolases. Changes in the levels of the autophagosomal marker LC3-II are considered a sign of ongoing autophagy, and its lysosomal turnover thus reflects autophagic activity. […] Association of LC3A/B up-regulation and autophagy induction has also been referred previously.
as §3, with “Subsequently, the cells were lysed with ice-cold Laemli buffer solution containing glycerol, 1M Tris/HCl (pH 6.8), 20% sodium dodecyl sulphate (SDS), deionized water and mixtures of phosphatase and protease inhibitors.” left out

[6] = tested on: superoxide dismutase (SOD); test: SOD activity in treated A549 cells; details: A549, 20 µM
Description: as §1, §2

## CC(C)(C)OC(=O)n1cc(CNC(=O)Nc2ccc(NC(=O)NCc3cn(C(=O)OC(C)(C)C)c4ccccc34)cc2)c2ccccc21 [Compound 49, N,N′-(1,4-phenylene)bis{N′-[1-(tert-butoxycarbonyl)indol-3-yl]methyl (urea)}]
[1]; 24 h
  GST: 3.540 ± 1.07 μkat/mg Prot
[1]; 48 h
  GST: 2.580 ± 0.44 μkat/mg Prot
[1]; 72 h
  GST: 5.060 ± 0.52 μkat/mg Prot
[2]; A549, 20 µM, 24, 48 and 72 h, vs DMSO
  changes in the G1, S or G2/M phases of the cell cycle: non-significant changes
[2]; A549, 20 µM, all time points, vs DMSO control
  sub-G0/G1 subpopulation (marker of apoptosis): minimal changes
[2]; A549, 49 20 µM + CQ 20 µM, 24 h, vs DMSO, CQ or 49 alone
  cell cycle, combination with CQ: significant cell cycle arrest at the G1 phase
[2]; A549, 49 20 µM + CQ 20 µM, all time points
  subG0/G1 subpopulation, combination with CQ: non-significant changes
[3]
  levels of Atg7: significantly increased
[4]
  phosphorylated form of AMPK: significant increase
[5]
  LC3A/B protein expression: significantly increased
[6]; 24 h
  SOD: 0.408 ± 0.24 μkat/mg Prot
[6]; 48 h
  SOD: 0.526 ± 0.27 μkat/mg Prot
[6]; 72 h
  SOD: 0.523 ± 0.38 μkat/mg Prot
